# Laboratory results published in patent US9809560B2, “Ligands and methods for labeling biomolecules in vivo” (Albert Einstein College of Medicine, Inc., priority 2010, dated 2017).
# Counter-ions that a name gives are not always drawn.
# Experiments:
# PD1-Fc = assay: Labeling of PD1-Fc via CuAAC and Cu-free click chemistry, detection by Western blot; conditions: 1 h; for Western blot labeling signal: CuAAC with biotin-alkyne 100 μM or BARAC-biotin 100 μM
# Experimental: FIG. 13. Comparison of the efficiency of the CuAAC and BARAC-mediated copper-free click chemistry in labeling recombinant proteins and crude cell lysates. Western blot analysis of PD1-Fc isolated from HEK cells treated with Ac4ManNAz (top panel). Total protein loading was confirmed by Coomassie staining (bottom panel). Reaction conditions for CuAAC: biotin-alkyne (100 μM) in the presence of sodium ascorbate (2.5 mM), CuSO4 (250 μM) premixed with various tristriazolylamino ligands (500 μM); copper-free click reaction: BARAC-biotin (100 μM). Reactions were allowed to proceed for 1 h at room temperature, and analyzed by Western blot using an HRP-conjugated anti-biotin antibody. Structural formulae of tris(triazolylmethyl)amine-based ligands and BARAC-biotin. BTTAA=2-[4-({bis[(1-tert-butyl-1H-1,2,3-triazol-4-yl)methyl]amino}methyl)-1H-1,2,3-triazol-1-yl]acetic acid, BTTES=2-[4-({bis[(1-tert-butyl-1H-1,2,3-triazol-4-yl)methyl]amino}methyl)-1H-1,2,3-triazol-1-yl]ethyl hydrogen sulfate, TBTA=tris[(1-benzyl-1H-1,2,3-triazol-4-yl)methyl]amine, THPTA=tris[(1-hydroxypropyl-1H-1,2,3-triazol-4-yl)methyl]amine, BARAC=biarylazacyclooctynone.
# To evaluate the activity of the new ligand-Cu(I) complex and compare the click reactions in the context of biomolecular labeling experiments, the first system used was a recombinant glycoprotein—Programmed Death 1-Immunoglobulin G Fc fusion (PD1-Fc). When expressed in mammalian cells, the Fc region of the recombinant protein is glycosylated and terminated with sialic acids. HEK-293 cells stably expressing PD1-Fc fusion protein were cultured in medium containing 50 μM sialic acid metabolic precursor—peracetylated N-azidoacetylmannosamine (Ac4ManNAz) for 4 days. The target protein was then isolated using protein G (a genetically engineered protein that contains Fc binding domains of protein G) agarose. To probe for the presence of the sialic acid-associated azide, the protein was reacted with biotin-alkyne via the CuAAC or BARAC-biotin via the copper-free click chemistry. For the CuAAC, 100 μM of biotin-alkyne was used as the coupling partner and the ratio of biotin-alkyne, ligand, CuSO4 and sodium ascorbate was held at 1:5:2.5:25, a labeling condition optimized in the lab. The copper-free click chemistry was performed with 100 μM of BARAC-biotin. The reactions were allowed to proceed for one hour and the labeled protein was analyzed by SDS-PAGE and Western blot. As quantified by ImageJ, reactions mediated by BTTES-Cu(I) and BTTAA-Cu(I) provided 2.6- and 2.1-fold stronger signal than the signal afforded by THPTA-Cu(I) for the fusion protein isolated from Ac4ManNAz-treated culture. […]
# [1] = Fluorogenic kinetic assay of CuAAC of 3-azido-7-hydroxy-coumarin and propargyl alcohol; conditions: TBTA-Cu(I)-catalyzed reaction, same fluorogenic assay
# Experimental: FIG. 1A-1C. Copper(I)-catalyzed azide-alkyne cycloaddition (CuAAC) is accelerated by Cu(I)-stabilizing ligands. (A) CuAAC of azides and terminal alkynes to form 1,4-disubstituted 1,2,3-triazoles. (B) Structures of CuAAC-accelerating ligands. (C) Conversion-time profiles of CuAAC in the presence/absence of accelerating ligands. Reaction conditions: propargyl alcohol (50 μM), 3-azido-7-hydroxy-coumarin (100 μM), CuSO4 (75 μM), 0.1 M potassium phosphate buffer (pH 7.0)/DMSO 95:5, sodium ascorbate ([…]), rt. Error bars represent the standard deviation of three replicate experiments.
# Protocol for Kinetic Measurement of CuAAC of 3-azido-7-hydroxy-coumarin and Propargyl Alcohol […]
# Procedure for 200 μL reactions: In a 96-well fluorescence plate, add the reagents in the following order: (1) 40 μL of 500 mM phosphate buffer pH 7.0; (2) 1.0 μL 10 mM propargyl alcohol; (3) 10 μL of DMSO; (4) 6 μL of premixed CuSO4 and ligand ([Cu]=2.5 mM); (5) 1.0 μL 20 mM coumarin-N3; (6) 20 μL of 25 mM sodium ascorbate; (7) Read fluorescence (λex=404 nm, λem=477 nm, RFU) on the Synergy plate reader.
# zebrafish embryos = conditions: 1 mM CuSO4, 1.5 mM sodium ascorbate, 0.1 mM TBTA ligand; cited from earlier work
# [2] = cited from earlier work
# Jurkat cells = assay: Live cell labeling of Ac4ManNAl-treated cells, BTTPS-Cu(I) vs BTTP-Cu(I), Alexa Fluor 488-streptavidin and 7-AAD flow cytometry; format: cell-based, human; conditions: for mean fluorescence intensity: 15 min
# Experimental: FIG. 12A-12D. Comparison of the efficiency of the BTTPS-Cu(I) and BTTP-Cu(I)-mediated azide-alkyne cycloaddition in labeling sialylated glycoconjugates in live cells. Jurkat cells were cultured in the presence or absence of Ac4ManNAl for 3 days. Cells were then reacted with biotin azide (50 μM) in the presence of sodium ascorbate (2.5 mM), and CuSO4 premixed with ligands BTTPS or BTTP ([ligand]:[CuSO4]=6:1). Reactions were quenched with BCS, stained with Alexa Fluor 488-streptavidin, 7-AAD, and analyzed by flow cytometry. (A) Mean fluorescence intensity (MFI) of cells treated with the BTTPS-Cu(I) or BTTP-Cu(I) catalyst ([CuSO4]=75 μM) in the course of 5-15 min reactions. (B) Percentage of viable cells without cell-membrane damage post the click reactions with the BTTPS-Cu(I) or BTTP-Cu(I) catalyst ([CuSO4]=75 μM) in the course of 5-15 min reactions. (C) MFI of cells treated with the BTTPS-Cu(I) catalyst ([CuSO4]=20-75 μM) in a one-minute reaction. (D) Percentage of viable cells without cell-membrane damage post the click reactions with the BTTPS-Cu(I) catalyst ([Cu]=20-75 μM) in a one-minute reaction.
# In the ligand design, sulfation of BTTP is used to generate a negatively charged ligand, BTTPS (3-(4-((bis((1-tert-butyl-1H-1,2,3-triazol-4-yl)methyl)amino)methyl)-1H-1,2,3-triazol-1-yl)propyl hydrogen sulfate), (FIG. 14) to minimize the cellular internalization of the coordinated copper. To evaluate if sulfation confers the ligand the desired property, BTTPS-Cu(I) and BTTP-Cu(I) were compared in live cell labeling experiments. Jurkat cells were metabolically labeled with Ac4ManNAl. The treated cells were reacted with biotin-azide (50 μM) in the presence of BTTPS-Cu(I) or BTTP-Cu(I) for 5-15 min at room temperature (catalyst formulation: [ligand]:[CuSO4]=6:1, [CuSO4]=75 μM). After the reaction was quenched with BCS, the biotinylated cells were incubated with Alexa Fluor 488-streptavidin. The cells were then stained with 7-aminoactinomycin D (7-AAD), a fluorescent molecule with strong affinity for double-stranded DNA, and analyzed by flow cytometry. […] Therefore, healthy and damaged cells can be easily distinguished. […] Greater than 60% cells were still undamaged after treatment with BTTPS-Cu(I) (7-AAD negative), whereas only 26% cells treated with BTTP-Cu(I) reminded normal (FIG. 12b). Furthermore, the labeling temperature also plays a significant role in modulating the Cu-associated toxicity. When both Jurkat cells and the labeling reagents were pre-cooled to 4° C. before triggering the CuAAC, greater than 85% cells remained viable after a 15 min BTTPS-Cu(I)-mediated reaction with high labeling efficiency achieved (mean fluorescence intensity 2200, for reactions performed at 4° C.-room temperature vs 3679, for reactions performed at room temperature).
molecule,measurement,setting,value
"tris[(1-hydroxypropyl-1H-1,2,3-triazol-4-yl)methyl]amine [THPTA]",Western blot labeling signal,PD1-Fc,significantly weaker labeling
biarylazacyclooctynone [BARAC],Western blot labeling signal,PD1-Fc,no detectable signal
"CC(C)(C)n1cc(CN(Cc2cn(CC(=O)O)nn2)Cc2cn(C(C)(C)C)nn2)nn1 [BTTAA, 2-(4-((bis((1-tert-butyl-1H-1,2,3-triazol-4-yl)methyl)amino)methyl)-1H-1,2,3-triazol-1-yl)acetic acid]","signal relative to THPTA-Cu(I) (Western blot, ImageJ)","PD1-Fc; biotin-alkyne 100 μM, ligand 500 μM, CuSO4 250 μM, sodium ascorbate 2.5 mM",2.1 fold
"c1ccc(Cn2cc(CN(Cc3cn(Cc4ccccc4)nn3)Cc3cn(Cc4ccccc4)nn3)nn2)cc1 [TBTA, tris[(1-benzyl-1H-1,2,3-triazol-4-yl)methyl]amine]",cycloaddition product yield at leveling off,[1],< 20%
same,time by which all embryos were dead,zebrafish embryos,≤ 15 min
same,water solubility,[2],very poor water solubility
same,Western blot labeling signal,PD1-Fc,no detectable signal
"CC(C)(C)n1cc(CN(Cc2cn(CCCOS(=O)(=O)O)nn2)Cc2cn(C(C)(C)C)nn2)nn1 [BTTPS, 3-(4-((bis((1-tert-butyl-1H-1,2,3-triazol-4-yl)methyl)amino)methyl)-1H-1,2,3-triazol-1-yl)propyl hydrogen sulfate]",mean fluorescence intensity,Jurkat cells; reactions performed at 4° C.-room temperature,2200
same,mean fluorescence intensity,Jurkat cells; reactions performed at room temperature,3679
same,cells undamaged (7-AAD negative),"Jurkat cells; 15 min reaction at room temperature, [ligand]:[CuSO4]=6:1, [CuSO4]=75 μM",Greater than 60%
same,cells remaining viable,"Jurkat cells; cells and reagents pre-cooled to 4° C., 15 min reaction",greater than 85%
